# Experimental data: US6737383B1, “Herbicidal oxadiazolidines” (priority 1999, dated 2004)
# Tests used:
# bedstraw = test: Test B pre/postemergence bedstraw; assay type: in vivo, Galium aparine
# In short: (§1)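 Herbicidal effect was estimated by eye on a ten-point control scale after plants spent twelve to sixteen days in a greenhouse following soil or foliar treatment. Foliar sprays targeted plants at one to four leaves; all doses were formulated in a non-phytotoxic solvent with surfactant.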
# blackgrass = test: Test B pre/postemergence blackgrass; assay type: in vivo, Alopecurus myosuroides
# In short: as §1
# surinam grass = test: Test B pre/postemergence surinam grass; assay type: in vivo, Brachiaria decumbens
# In short: as §1
# cocklebur = test: Test B pre/postemergence cocklebur; assay type: in vivo, Xanthium strumarium
# In short: as §1
# corn = test: Test B pre/postemergence corn; assay type: in vivo, Zea mays
# In short: as §1
# giant foxtail = test: Test B pre/postemergence giant foxtail; assay type: in vivo, Setaria faberii
# In short: as §1
# morningglory = test: Test B pre/postemergence morningglory; assay type: in vivo, Ipomoea hederacea
# In short: as §1
# pigweed = test: Test B pre/postemergence pigweed; assay type: in vivo, Amaranthus retroflexus
# In short: as §1
# rape = test: Test B pre/postemergence rape; assay type: in vivo, Brassica napus
# In short: as §1
# soybean = test: Test B pre/postemergence soybean; assay type: in vivo, Glycine max
# In short: as §1
# sugar beet = test: Test B pre/postemergence sugar beet; assay type: in vivo, Beta vulgaris
# In short: as §1
# velvetleaf = test: Test B pre/postemergence velvetleaf; assay type: in vivo, Abutilon theophrasti
# In short: as §1
# purple nutsedge = test: Test B pre/postemergence purple nutsedge; assay type: in vivo, Cyperus rotundus
# In short: as §1
# smallflower flatsedge = test: Test B flood test smallflower flatsedge; assay type: in vivo, Cyperus difformis
# In short: (§2)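 Read-out is a visual response score from 0 (no effect) to 10 (complete control), assigned by comparison with untreated controls. Treatment was applied at the 2-leaf stage, and plants stayed in the greenhouse for twelve to sixteen days before scoring.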
# duck salad = test: Test B flood test duck salad; assay type: in vivo, Heteranthera limosa
# In short: as §2
# bamyardgrass = test: Test B flood test barnyardgrass; assay type: in vivo, Echinochloa crus-galli
# In short: as §2
# [1] = Preemergence, Rate 62 g/ha, scale of 0 to 10 where 0 is no effect and 10 is complete control
# [2] = Preemergence, Rate 125 g/ha, 0 is no effect, 10 is complete control
# [3] = Preemergence, Rate 250 g/ha, scale 0 to 10, 0 is no effect, 10 is complete control
# [4] = Preemergence, Rate 500 g/ha, scale of 0 to 10 where 0 is no effect and 10 is complete control
# [5] = Rate 62 g/ha, Postemergence, scale of 0 to 10 where 0 is no effect and 10 is complete control
# [6] = Rate 125 g/ha, Postemergence, scale 0 to 10
# [7] = Rate 500 g/ha, Postemergence, scale 0 to 10
# [8] = Rate 62 g/ha, Postemergence section, flood test species, scale of 0 to 10 where 0 is no effect and 10 is complete control
# [9] = Rate 125 g/ha, listed under Postemergence (flood test species), scale 0 to 10
# [10] = Rate 250 g/ha, Postemergence section, flood test species
# [11] = Rate 500 g/ha, listed under Postemergence (flood test species), scale 0 to 10
smiles,measurement,setting,value
C=C(C)CCn1c(=O)on(C(=O)N(c2ccc(F)cc2)C(C)C)c1=O [Compound 199],Bedstraw plant response rating,bedstraw; [1],0
same,Bedstraw plant response rating (0 to 10 scale),bedstraw; [2],0
same,Bedstraw plant response rating,bedstraw; [3],0
same,"Plant response rating, Bedstraw",bedstraw; [4],0
same,Bedstraw plant response rating,bedstraw; [5],0
same,Bedstraw plant response rating,bedstraw; [6],0
same,"Plant response rating (0 to 10; 0 is no effect, 10 is complete control), Bedstraw","bedstraw; Rate 250 g/ha, Postemergence",0
same,Bedstraw plant response rating,bedstraw; [7],2
same,Blackgrass plant response rating,blackgrass; [1],6
same,Blackgrass plant response rating (0 to 10 scale),blackgrass; [2],10
same,Blackgrass plant response rating,blackgrass; [3],10
same,"Plant response rating, Blackgrass",blackgrass; [4],10
same,Blackgrass plant response rating,blackgrass; [5],0
same,Blackgrass plant response rating,blackgrass; [6],4
same,"Plant response rating (0 to 10; 0 is no effect, 10 is complete control), Blackgrass","blackgrass; Rate 250 g/ha, Postemergence",9
same,Blackgrass plant response rating,blackgrass; [7],9
same,B. signalgrass plant response rating,surinam grass; [1],0
same,B. signalgrass plant response rating (0 to 10 scale),surinam grass; [2],1
same,B. signalgrass plant response rating,surinam grass; [3],6
same,"Plant response rating, B. signalgrass",surinam grass; [4],9
same,B. signalgrass plant response rating,surinam grass; [5],0
same,B. signalgrass plant response rating,"surinam grass; Rate 125 g/ha, Postemergence, scale 0 (no effect) to 10 (complete control)",0
same,"Plant response rating, B. signalgrass","surinam grass; Rate 250 g/ha, Postemergence, scale 0 to 10, 0 is no effect, 10 is complete control",0
same,Cocklebur plant response rating,cocklebur; [1],0
same,Cocklebur plant response rating (0 to 10 scale),cocklebur; [2],0
same,Cocklebur plant response rating,cocklebur; [3],0
same,"Plant response rating, Cocklebur",cocklebur; [4],0
same,Cocklebur plant response rating,cocklebur; [5],0
same,Cocklebur plant response rating,cocklebur; [6],0
same,"Plant response rating (0 to 10; 0 is no effect, 10 is complete control), Cocklebur","cocklebur; Rate 250 g/ha, Postemergence",0
same,Cocklebur plant response rating,cocklebur; [7],3
same,Corn plant response rating,corn; [1],0
same,Corn plant response rating (0 to 10 scale),corn; [2],0
same,Corn plant response rating,corn; [3],0
same,"Plant response rating, Corn",corn; [4],0
same,Corn plant response rating,corn; [5],0
same,Corn plant response rating,corn; [6],0
same,"Plant response rating (0 to 10; 0 is no effect, 10 is complete control), Corn","corn; Rate 250 g/ha, Postemergence",0
same,Corn plant response rating,corn; [7],0
same,Giant foxtail plant response rating,giant foxtail; [1],7
same,Giant foxtail plant response rating (0 to 10 scale),giant foxtail; [2],10
same,Giant foxtail plant response rating,giant foxtail; [3],10
same,"Plant response rating, Giant foxtail",giant foxtail; [4],10
same,Giant foxtail plant response rating,giant foxtail; [5],0
same,Giant foxtail plant response rating,giant foxtail; [6],2
same,"Plant response rating (0 to 10; 0 is no effect, 10 is complete control), Giant foxtail","giant foxtail; Rate 250 g/ha, Postemergence",2
same,Giant foxtail plant response rating,giant foxtail; [7],7
same,Morningglory plant response rating,morningglory; [1],0
same,Morningglory plant response rating (0 to 10 scale),morningglory; [2],0
same,Morningglory plant response rating,morningglory; [3],0
same,"Plant response rating, Morningglory",morningglory; [4],0
same,Morningglory plant response rating,morningglory; [5],4
same,Morningglory plant response rating,morningglory; [6],4
same,"Plant response rating (0 to 10; 0 is no effect, 10 is complete control), Morningglory","morningglory; Rate 250 g/ha, Postemergence",4
same,Morningglory plant response rating,morningglory; [7],8
same,Redroot pigweed plant response rating,pigweed; [1],7
same,Redroot pigweed plant response rating (0 to 10 scale),pigweed; [2],7
same,Redroot pigweed plant response rating,pigweed; [3],10
same,"Plant response rating, Redroot pigweed",pigweed; [4],10
same,Redroot pigweed plant response rating,pigweed; [5],0
same,Redroot pigweed plant response rating,pigweed; [6],0
same,"Plant response rating (0 to 10; 0 is no effect, 10 is complete control), Redroot pigweed","pigweed; Rate 250 g/ha, Postemergence",2
same,Redroot pigweed plant response rating,pigweed; [7],6
same,Rape plant response rating,rape; [1],0
same,Rape plant response rating (0 to 10 scale),rape; [2],0
same,Rape plant response rating,rape; [3],0
same,"Plant response rating, Rape",rape; [4],0
same,Rape plant response rating,rape; [5],0
same,Rape plant response rating,rape; [6],0
same,"Plant response rating (0 to 10; 0 is no effect, 10 is complete control), Rape","rape; Rate 250 g/ha, Postemergence",0
same,Rape plant response rating,rape; [7],0
same,Soybean plant response rating,soybean; [1],0
same,Soybean plant response rating (0 to 10 scale),soybean; [2],0
same,Soybean plant response rating,soybean; [3],0
same,"Plant response rating, Soybean",soybean; [4],0
same,Soybean plant response rating,soybean; [5],2
same,Soybean plant response rating,soybean; [6],2
same,"Plant response rating (0 to 10; 0 is no effect, 10 is complete control), Soybean","soybean; Rate 250 g/ha, Postemergence",7
same,Soybean plant response rating,soybean; [7],7
same,Sugarbeets plant response rating,sugar beet; [1],4
same,Sugarbeets plant response rating (0 to 10 scale),sugar beet; [2],5
same,Sugarbeets plant response rating,sugar beet; [3],5
same,"Plant response rating, Sugarbeets",sugar beet; [4],6
same,Sugarbeets plant response rating,sugar beet; [5],0
same,Sugarbeets plant response rating,sugar beet; [6],0
same,"Plant response rating (0 to 10; 0 is no effect, 10 is complete control), Sugarbeets","sugar beet; Rate 250 g/ha, Postemergence",0
same,Sugarbeets plant response rating,sugar beet; [7],2
same,Velvetleaf plant response rating,velvetleaf; [1],0
same,Velvetleaf plant response rating,velvetleaf; [3],0
same,"Plant response rating, Velvetleaf",velvetleaf; [4],0
same,Velvetleaf plant response rating,velvetleaf; [5],0
same,Velvetleaf plant response rating,velvetleaf; [6],0
same,"Plant response rating (0 to 10; 0 is no effect, 10 is complete control), Velvetleaf","velvetleaf; Rate 250 g/ha, Postemergence",0
same,Nutsedge plant response rating,purple nutsedge; [1],0
same,Nutsedge plant response rating (0 to 10 scale),purple nutsedge; [2],0
same,Nutsedge plant response rating,purple nutsedge; [3],0
same,"Plant response rating, Nutsedge",purple nutsedge; [4],10
same,Nutsedge plant response rating,purple nutsedge; [5],0
same,Nutsedge plant response rating,purple nutsedge; [6],0
same,"Plant response rating (0 to 10; 0 is no effect, 10 is complete control), Nutsedge","purple nutsedge; Rate 250 g/ha, Postemergence",0
same,Nutsedge plant response rating,purple nutsedge; [7],0
same,S. Flatsedge plant response rating,smallflower flatsedge; [8],0
same,S. Flatsedge plant response rating,smallflower flatsedge; [9],0
same,"Plant response rating (0 to 10; 0 is no effect, 10 is complete control), S. Flatsedge",smallflower flatsedge; [10],2
same,S. Flatsedge plant response rating,smallflower flatsedge; [11],7
same,Ducksalad plant response rating,duck salad; [8],0
same,Ducksalad plant response rating,duck salad; [9],0
same,"Plant response rating (0 to 10; 0 is no effect, 10 is complete control), Ducksalad",duck salad; [10],0
same,Ducksalad plant response rating,duck salad; [11],2
same,Barnyardgrass plant response rating,bamyardgrass; [8],0
same,Barnyardgrass plant response rating,bamyardgrass; [9],0
same,"Plant response rating (0 to 10; 0 is no effect, 10 is complete control), Barnyardgrass",bamyardgrass; [10],0
same,Barnyardgrass plant response rating,bamyardgrass; [11],8
